# Test results: patent publication US10287279B2, “Inhibitors of human 12/15-lipoxygenase” (THE GENERAL HOSPITAL CORPORATION, priority 2013, dated 2019)
# “Also recorded” adds a separate entry of the source. Like-named read-outs stand apart in the source and are kept apart here.
# Tests used:
# [1] = target: human platelet 12-lipoxygenase (12-LOX) (Homo sapiens (Human), UniProt P18054); assay: Lipoxygenase UV-Vis assay, 12-LOX; assay type: biochemical; details: selectivity profiling
# Protocol: (§1) Human 5-lipoxygenase (5-LOX) was expressed as a non-tagged protein and used as a crude ammonium sulfate protein fraction, as published previously.^77
# (§2) The inhibitor compounds were screened initially using one concentration point on a Perkin-Elmer Lambda 40 UV-Vis spectrometer. […] The reactions were initiated by adding either of ˜40 nM 12-LOX, 40 nM 12/15-LOX, 0.5 μM 15-LOX-2 or ˜200 nM 5-LOX (ammonium sulfate suspension) to a cuvette with a 2 mL reaction buffer constantly stirred using a magnetic stir bar at room temperature (22° C.). […] Inhibitors were stored at −20° C. in DMSO.
# Caco-2 permeability = details: human
# [2] = Stability in aqueous solutions; details: pH 2, pH 7.4, pH 9
# [3] = system: mouse hippocampal HT22 cells; assay: HT22 cell culture assay, glutamate-induced cell death (LDH release); assay type: cell-based; details: for protection against oxidative glutamate toxicity in HT22 cells: 5 mM glutamate, increasing amounts or concentration not stated
# From the text: Glutamate-induced oxidative stress^67-69 leads to time-dependent cell death mediated by 12/15-LOX in both immature primary neurons and mouse hippocampal HT22 cells.^38,46,70 Primary neurons require a lengthy isolation procedure and also show relatively modest increases in cell death in this assay, indicating they are not suited for a high-throughput testing approach. In contrast, HT22 cells grow quickly and consistently feature low cell death under control conditions, but a majority of cells die after glutamate treatment (50-100%). This assay can be adapted to 96-well plates, allowing for moderate to high throughput against the screened compounds. The characteristic Z′ score used to evaluate the technical quality and suitability as screening tool averaged 0.77 over ten experiments (SD=0.13; range, 0.49-0.94), where values above 0.5 indicate an excellent assay.^71
# Treatment consisted of exchanging the medium to 100 μl fresh culturing medium and adding 5 mM glutamate (stock solution 0.5 M in PBS) in the presence or absence of DMSO (maximum 0.1% final concentration) as control or the indicated concentrations of 1. […] Three independent experiments were evaluated. […] The eicosanoids containing fractions were transferred to scintillation vials followed by addition of perdeuterated 13-HODE (13-d31-HODE), as an internal control for extraction and 1.5% glacial acetic acid for protein precipitation. […] The dry samples were then re-constituted in methanol and an internal control 12-deuterated (d8)-HETE (12-d8-HETE), was added to each sample for detector response variation and it was assumed that the change in detector response for 12-HETE and 12-d8-HETE would be similar. […] The Collision Induced Dissociation (CID) was used for MS-MS with collision energy of 35 eV.
# [4] = In vivo PK (mouse) at 30 mpk IP
# [5] = system: mouse distal MCAO model of permanent focal ischemia; parameters: species or system C57B16J mice; details: in vivo
# Protocol: To study 1 in a model of distal middle cerebral artery occlusion (distal MCAO), ^74 C57B16J mice were treated with ferric chloride (FeCl3) to cause occlusion of the distal middle cerebral artery. […] The body temperature was monitored by a rectal probe and maintained at 37±0.3° C. by a homoeothermic blanket control unit. Briefly, mice were placed in a stereotaxic frame, the scalp was opened and right temporal muscle was dissected. The area between zygomatic arch and squamous bone was thinned by a high-speed drill and cooled with saline. The trace of MCA was visualized and thin bony film was lifted up by forceps. After that a laser-Doppler flowmetry probe was placed 2 mm posterior, 6 mm lateral to the bregma to monitor the regional cerebral blood flow (rCBF). After obtaining a stable epoch of the pre-ischemic rCBF, a piece of 10% FeCl3 saturated filter paper was placed over the intact dura mater along the trace of MCA and the rCBF was continuously monitored during the next 3 hours. After 2 hours of ischemia, either 50 mg/kg 1, or DMSO vehicle was injected intraperitoneally. Following sacrifice at 24 hours, brains were sectioned into 1 mm slices, and infarct sizes were determined by staining with 2,3,5-triphenyltetrazolium chloride (TTC), using the indirect method (infarct volume=contralateral volume minus uninfarcted ipsilateral volume). […]
# [6] = Aqueous kinetic solubility; details: PBS buffer (pH 7.4)
# [7] = system: warfarin-pretreated mice subjected to transient focal ischemia; assay: Warfarin-associated hemorrhage following experimental stroke (transient focal ischemia); assay type: in vivo, mouse
# Protocol: A) In warfarin-pretreated mice subjected to transient focal ischemia with 3 h occlusion, 50 mg/kg ML351 was administered by i.p. injection 3 h after onset of ischemia (FIG. 9A). This mimics the situation of a patient on warfarin who experiences a severe stroke with hemorrhagic transformation.
# B) To investigate if administering tPA to patients with an ischemic stroke who are on warfarin can be made safe, warfarin-pretreated mice were subjected to 2 h of transient focal ischemia, then treated with tPA 4 h after onset of ischemia, and administered 50 mg/kg ML351 by i.p. injection concurrently with tPA.
# [8] = Microsomal stability, rat liver microsomes; details: absence of NADPH; 1 hr period; species not distinguished
# [9] = system: filament model of transient focal ischemia; assay: Filament model of transient focal ischemia; assay type: in vivo, mouse; details: 90 minutes ischemia, sacrifice at 24 hours
# [10] = target: human reticulocyte 15-lipoxygenase-1 (12/15-LOX) (Homo sapiens (Human), UniProt P16050); assay: Lipoxygenase UV-Vis cuvette-based assay, 12/15-LOX; assay type: biochemical; details: for 12/15-LOX inhibition in words: SAR discussion, human 12/15-LOX
# human reticulocyte 15-lipoxygenase-1 (12/15-LOX), sequence (P16050 whole entry): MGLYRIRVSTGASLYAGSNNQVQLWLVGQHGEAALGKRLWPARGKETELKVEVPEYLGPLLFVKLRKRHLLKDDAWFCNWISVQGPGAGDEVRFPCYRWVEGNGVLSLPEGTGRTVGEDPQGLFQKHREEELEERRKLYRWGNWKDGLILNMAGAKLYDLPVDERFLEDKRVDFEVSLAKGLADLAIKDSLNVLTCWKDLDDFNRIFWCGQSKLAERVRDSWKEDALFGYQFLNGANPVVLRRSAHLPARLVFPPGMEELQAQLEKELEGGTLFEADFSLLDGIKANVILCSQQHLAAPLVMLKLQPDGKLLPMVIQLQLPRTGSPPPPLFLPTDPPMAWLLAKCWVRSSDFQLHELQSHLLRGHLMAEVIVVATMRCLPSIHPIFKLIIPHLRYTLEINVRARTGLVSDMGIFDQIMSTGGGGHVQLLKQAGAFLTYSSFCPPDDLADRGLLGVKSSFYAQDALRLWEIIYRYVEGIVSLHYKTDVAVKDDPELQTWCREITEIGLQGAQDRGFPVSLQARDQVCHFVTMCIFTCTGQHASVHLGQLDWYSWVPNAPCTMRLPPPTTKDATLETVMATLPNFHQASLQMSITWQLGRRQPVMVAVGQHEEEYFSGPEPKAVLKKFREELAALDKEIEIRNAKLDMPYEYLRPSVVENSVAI
# Protocol: as §1, §2
# [11] = target: Human 5-lipoxygenase (5-LOX) (Homo sapiens (Human), UniProt P09917); assay: Lipoxygenase UV-Vis assay, 5-LOX; assay type: biochemical; details: selectivity profiling
# Human 5-lipoxygenase (5-LOX), sequence (P09917 whole entry): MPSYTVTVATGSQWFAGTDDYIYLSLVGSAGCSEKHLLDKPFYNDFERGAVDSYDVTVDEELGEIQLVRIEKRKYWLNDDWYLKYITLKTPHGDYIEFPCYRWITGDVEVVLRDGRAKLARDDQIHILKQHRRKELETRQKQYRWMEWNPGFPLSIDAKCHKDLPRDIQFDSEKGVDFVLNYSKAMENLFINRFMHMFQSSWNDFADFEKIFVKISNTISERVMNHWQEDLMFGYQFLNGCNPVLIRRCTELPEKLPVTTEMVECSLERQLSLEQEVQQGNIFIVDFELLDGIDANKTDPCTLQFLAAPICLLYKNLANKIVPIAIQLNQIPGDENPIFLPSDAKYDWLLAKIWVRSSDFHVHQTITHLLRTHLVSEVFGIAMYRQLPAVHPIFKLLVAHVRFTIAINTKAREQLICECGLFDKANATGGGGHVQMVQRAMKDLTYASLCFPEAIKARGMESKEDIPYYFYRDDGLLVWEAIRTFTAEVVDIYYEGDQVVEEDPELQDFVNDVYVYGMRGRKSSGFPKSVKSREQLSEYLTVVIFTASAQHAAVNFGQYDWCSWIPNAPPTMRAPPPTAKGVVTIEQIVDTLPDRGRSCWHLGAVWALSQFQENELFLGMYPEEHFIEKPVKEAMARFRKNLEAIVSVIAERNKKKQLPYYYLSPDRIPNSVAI
# Protocol: as §1, §2
# [12] = target: human epithelial 15-lipoxygenase-2 (15-LOX-2) (Homo sapiens (Human), UniProt O15296); assay: Lipoxygenase UV-Vis assay, 15-LOX-2; assay type: biochemical; details: selectivity profiling
# human epithelial 15-lipoxygenase-2 (15-LOX-2), sequence (O15296 whole entry): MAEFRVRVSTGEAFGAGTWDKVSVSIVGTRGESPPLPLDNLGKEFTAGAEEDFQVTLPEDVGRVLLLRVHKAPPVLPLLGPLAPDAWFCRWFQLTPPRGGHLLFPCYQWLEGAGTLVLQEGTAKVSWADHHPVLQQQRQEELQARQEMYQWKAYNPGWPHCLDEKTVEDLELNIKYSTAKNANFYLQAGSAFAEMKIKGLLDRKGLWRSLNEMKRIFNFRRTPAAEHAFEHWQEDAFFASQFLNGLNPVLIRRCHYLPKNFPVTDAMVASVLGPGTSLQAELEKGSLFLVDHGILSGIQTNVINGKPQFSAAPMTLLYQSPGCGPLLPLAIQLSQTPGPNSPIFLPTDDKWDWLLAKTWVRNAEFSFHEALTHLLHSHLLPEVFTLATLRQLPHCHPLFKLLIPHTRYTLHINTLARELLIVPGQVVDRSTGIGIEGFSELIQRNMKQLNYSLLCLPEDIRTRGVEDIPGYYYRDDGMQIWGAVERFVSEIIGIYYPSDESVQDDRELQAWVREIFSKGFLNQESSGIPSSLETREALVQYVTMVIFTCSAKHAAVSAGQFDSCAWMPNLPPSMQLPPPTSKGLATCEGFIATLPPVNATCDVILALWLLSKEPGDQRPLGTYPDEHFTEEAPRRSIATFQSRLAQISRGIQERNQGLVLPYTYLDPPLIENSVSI
# Protocol: as §1, §2
# [13] = male, CD1, mouse, brain, ip, 30 mg/kg
# [14] = male, CD1, mouse, plasma, ip, 30 mg/kg
# [15] = UV-Vis cuvette-based assay in triplicate, 10 μM AA, read-out: IC50 (μM) [±SD (μM)]
# human platelet 12-lipoxygenase (12-LOX), sequence (P18054 whole entry): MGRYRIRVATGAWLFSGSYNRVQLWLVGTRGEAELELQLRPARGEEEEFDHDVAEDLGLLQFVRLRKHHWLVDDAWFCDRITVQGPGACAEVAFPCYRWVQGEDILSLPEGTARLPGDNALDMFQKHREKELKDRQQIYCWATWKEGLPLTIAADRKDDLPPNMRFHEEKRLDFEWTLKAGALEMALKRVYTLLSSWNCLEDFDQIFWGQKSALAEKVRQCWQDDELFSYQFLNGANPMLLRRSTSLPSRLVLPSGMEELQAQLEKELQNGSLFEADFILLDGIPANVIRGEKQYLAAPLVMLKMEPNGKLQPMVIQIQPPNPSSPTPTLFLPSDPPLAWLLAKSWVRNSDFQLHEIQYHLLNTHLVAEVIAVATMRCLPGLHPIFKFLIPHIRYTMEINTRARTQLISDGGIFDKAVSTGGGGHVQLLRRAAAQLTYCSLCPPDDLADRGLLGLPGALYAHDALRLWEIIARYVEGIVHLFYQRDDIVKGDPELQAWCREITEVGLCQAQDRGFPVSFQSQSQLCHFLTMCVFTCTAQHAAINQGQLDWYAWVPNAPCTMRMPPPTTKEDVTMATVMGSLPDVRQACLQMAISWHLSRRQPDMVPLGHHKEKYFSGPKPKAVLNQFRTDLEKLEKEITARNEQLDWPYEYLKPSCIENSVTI
smiles,measurement,setting,value
"CNc1oc(-c2cccc3ccccc23)nc1C#N [Compound 1, 5-(Methylamino)-2-(naphthalen-1-yl)oxazole-4-carbonitrile]",IC50,[1],> 100 µM
same,Papp,Caco-2 permeability,1.5 ×10⁻⁶ cm/s
same,stability in aqueous solutions,[2],stable
same,Permeability (PAMPA),PAMPA permeability,723 10^−6 cm/s
same,cellular protection in HT22 cells,[3]; 5 μM concentration,cellular protection
same,protection against oxidative glutamate toxicity in HT22 cells,[3],protective against oxidative glutamate toxicity; also recorded: dose-dependent protection
same,Mouse Plasma Stability remaining at 2 hours,Mouse plasma stability,100%
same,AUC(0-inf),[4]; [13],35.5 µM·h
same,Tmax,[4]; [13],30 min
same,half-life,"[4]; male, CD1, mouse, brain, ip, 30 mg/kg, T1/2 (Brain), mouse, 30 mpk IP",~60 min
same,AUC(0-inf),[4]; [14],13 µM·h
same,Cmax,[4]; [14],13.8 µM
same,Tmax,[4]; [14],15 min
same,half-life,"[4]; male, CD1, mouse, plasma, ip, 30 mg/kg, T1/2 (Plasma), mouse, 30 mpk IP",~60 min
same,Cmax (Brain),"[4]; mouse, 30 mpk IP, brain",28.8 µM
same,"infarct size, permanent focal ischemia",[5],significantly reduced infarct size
same,Kinetic Solubility,[6],1.2 µM
same,hemorrhage in the ischemic hemisphere of warfarin-treated mice treated with tPA,"[7]; 2 h ischemia, tPA 4 h after onset, 50 mg/kg i.p. concurrently with tPA",significantly reduced
same,hemorrhage in the ischemic hemisphere of warfarin-treated mice,"[7]; 3 h occlusion, 50 mg/kg i.p. 3 h after onset of ischemia",significantly reduced
same,microsomal stability without NADPH,[8],no degradation
same,"infarct size, transient focal ischemia",[9]; 10 mg/kg,did not change the infarct
same,"infarct size, transient focal ischemia",[9]; 25 mg/kg,significantly protective
same,"infarct size, transient focal ischemia",[9]; 50 mg/kg,significantly protective
"CNc1oc(-c2ccc3ccccc3c2)nc1C#N [Compound 2, 5-(Methylamino)-2-(naphthalen-2-yl)oxazole-4-carbonitrile]",IC50,[10],> 30 µM
"CNc1oc(-c2cccc3cnccc23)nc1C#N [Compound 3, 2-(Isoquinolin-5-yl)-5-(methylamino)oxazole-4-carbonitrile]",IC50,[10]; [15],> 30 µM
"CNc1oc(-c2cccc3nccnc23)nc1C#N [Compound 6, 5-(Methylamino)-2-(quinoxalin-5-yl)oxazole-4-carbonitrile]",IC50,[10]; [15],> 40 µM
"CNc1oc(-c2cccc(Cl)c2Cl)nc1C#N [Compound 7, 2-(2,3-Dichlorophenyl)-5-(methylamino)oxazole-4-carbonitrile]",protection against glutamate-induced cell death in HT22 cells,[3]; concentration of 10 μM,some protection
same,IC50,[11],> 100 µM
"CNc1oc(-c2ccc(Cl)c(Cl)c2)nc1C#N [Compound 8, 2-(3,4-Dichlorophenyl)-5-(methylamino)oxazole-4-carbonitrile]",protection against glutamate-induced cell death in HT22 cells,[3]; concentrations of 2 to 10,dose-dependent cell protective effect
"CNc1oc(-c2ccc3c(c2)OCCO3)nc1C#N [Compound 9, 2-(2,3-Dihydrobenzo[b][1,4]dioxin-6-yl)-5-(methylamino)oxazole-4-carbonitrile]",IC50,[10]; [15],> 40 µM
"CNc1oc(-c2ccc(-c3ccccc3)cc2)nc1C#N [Compound 11, 2-([1,1′-Biphenyl]-4-yl)-5-(methylamino)oxazole-4-carbonitrile]",12/15-LOX inhibition in words,[10],did not inhibit human 12/15-LOX
same,protection against oxidative glutamate toxicity in HT22 cells,[3],protected HT22 cells against oxidative stress
"CNc1oc(-c2ccc3cc[nH]c3c2)nc1C#N [Compound 13, 2-(1H-indol-6-yl)-5-(methylamino)oxazole-4-carbonitrile]",IC50,[10],> 40 µM
"CC(C)Nc1oc(-c2cccc3ccccc23)nc1C#N [Compound 26, 5-(Isopropylamino)-2-(naphthalen-1-yl)oxazole-4-carbonitrile]",12/15-LOX inhibition in words,[10],significantly reduced the potency
"N#Cc1nc(-c2cccc3ccccc23)oc1NC1CNC1 [Compound 31, 5-(Azetidin-3-ylamino)-2-(naphthalen-1-yl)oxazole-4-carbonitrile]",12/15-LOX inhibition in words,[10],did not inhibit human 12/15-LOX
same,protection against oxidative glutamate toxicity in HT22 cells,[3],protected HT22 cells against oxidative stress
"CNc1sc(-c2cccc3ccccc23)nc1C#N [Compound 32, 5-(methylamino)-2-(naphthalen-1-yl)thiazole-4-carbonitrile]",IC50,[1],> 40 µM
same,IC50,[12],> 100 µM
